# Test results taken from US20250084095A1, “Aminopyrimidine Derivatives as Cyclin-Dependent Kinase Inhibitors” (Accutar Biotechnology Inc., priority 2023, published 2025).
# Test system: Phospho-Rb (Ser807/811) in SW1573-CDK4 KO cells
# Test: Phospho-Rb expression inhibition in SW1573-CDK4 KO cells quantified by in cell Western
# Type: cell-based
# Details: Homo sapiens, 24 hours, read-out: SW1573 CDK4 KO pRb IC50
# Method: Parental SW1573 cells were obtained from the American Type Culture Collection (ATCC). CDK4 or CDK6 gene in […] cells was knocked out using the CRISPR-Cas9 technology. First, gRNA complex of CDK4 or CDK6 was prepared with Alt-R CRISPR-Cas9 tracrRNA and crRNA CDK4 (5′-[…]-3′ (SEQ ID NO: 4)) or CDK6 (5′-[…]-3′ (SEQ ID NO. 5)) (IDT-Integrated DNA Technologies), and then ribonucleoprotein (RNP) complex of CDK4 or CDK6 was prepared with respective gRNA complex and Alt-R S.p. Cas9 Nuclease V3 (IDT-Integrated DNA Technologies). Next, 5×10^4/10 μL SWJ1573 cells were electroporated with the CDK4 or CDK6 RNP complex and Alt-R Cas9 Electroporation Enhancer using Neon Transfection System (Thermo Fisher). Cells were then plated in a 96-well plate to select single clones for validation of CDK4 or CDK6 knockout by western blot analysis.
# MCF7 cells were obtained from American Type Culture Collection (ATCC, HTB-22). SW1573-CDK6 KO and SW1573-CDK4 KO cells were generated by the CRISPR-Cas9 technology. All cells were plated in 96-well plates (VWR #10062-900, or Corning #3904) in 90 uL culture medium at a density of 20,000 cells/well in the respective growth medium containing 10% FBS and 1% Penicillin Streptomycin, and then incubated at 37° C. overnight. The following day, the test compound was administered to the cells by using 1000× compound stock solution prepared in DMSO at various concentrations. 1000× compound stock solution was first diluted in culturing medium to 10×, then 10 uL compound medium was added to each well in the cell plates. After administration of the compound, the cells were then incubated at 37° C. for 24 hours. Upon completion, the cells were washed with PBS briefly. 150 uL/well of 4% formaldehyde was added and the plates were incubated at room temperature for 20 mins. The cells were washed with PBS briefly, and permeabilized with 150 uL/well of ice cold 100% methanol for 10 mins. The cells were washed with PBS briefly and blocked with 100 uL/well LI-COR blocking buffer for 1 hr at room temperature with gentle shaking. The cells were incubated overnight at 4° C. with 50 uL primary antibody rabbit anti-Phospho-Rb (Ser807/811) (1: 500, Cell Signaling, #8516) and anti-Rb (1:200, Santa Cruz, sc-73598) diluted in Intercept Blocking Buffer (LI-COR, #927-60001) containing 0.1% Tween 20. The next day, the cells were washed with 200 uL PBS containing 0.1% Tween 20, 5×5 mins at room temperature with gentle shaking, and incubated with 50 uL secondary antibody, IRDye® 800CW Goat anti-Rabbit IgG (1:1000, LI-COR, #926-32211) and IRDye®680RD Goat anti-Mouse IgG (1:1000, LI-COR, #926-68070), in LI-COR blocking buffer with 0.2% Tween 20 for 1 hr at room temperature with gentle shaking. The cells were washed with 200 uL PBS containing 0.1% Tween 20, 5×5 mins at room temperature with gentle shaking. The cells were washed with PBS for 5 mins. 100 uL fresh PBS was added to each well and the plates were imaged on a LI-COR Odyssey CLX plate reader.
row,SMILES,IC50 [nM]
1,"CCn1cc(C(C)C)c2sc(-c3nc(N[C@@H]4C[C@H]5CO[C@H](O5)[C@H]4O)ncc3Cl)c(C)c2c1=O [Compound 230, 5-ethyl-2-(5-chloro-2-(((1S,3R,4S,5R)-4-hydroxy-6,8-dioxabicyclo[3.2.1]octan-3-yl)amino)pyrimidin-4-yl)-7-isopropyl-3-methylthieno[3,2-c]pyridin-4(5H)-one]",150 to 1000
2,"Cc1c(C(C)(C)O)cnc2c(F)cc(-c3nc(N[C@@H]4C[C@H]5CO[C@H](O5)[C@H]4O)ncc3Cl)cc12 [Compound 257, (1S,3R,4S,5R)-3-((5-chloro-4-(8-fluoro-3-(2-hydroxypropan-2-yl)-4-methylquinolin-6-yl)pyrimidin-2-yl)amino)-6,8-dioxabicyclo[3.2.1]octan-4-ol]",150 to 1000
3,"CC(C)n1c(N2C(=O)OC[C@@H]2C)nc2c(F)cc(-c3nc(N[C@@H]4C[C@H]5CO[C@H](O5)[C@H]4O)ncc3Cl)cc21 [Compound 298, (S)-3-(6-(5-chloro-2-(((1S,3R,4S,5R)-4-hydroxy-6,8-dioxabicyclo[3.2.1]octan-3-yl)amino)pyrimidin-4-yl)-4-fluoro-1-isopropyl-1H-benzo[d]imidazol-2-yl)-4-methyloxazolidin-2-one]",> 1000
4,"Cc1c(CN2CC(F)C2)n(C(C)C)c2cc(-c3nc(N[C@@H]4C[C@H]5CO[C@H](O5)[C@H]4O)ncc3F)ccc2c1=O [Compound 197, 7-(5-fluoro-2-(((1S,3R,4S,5R)-4-hydroxy-6,8-dioxabicyclo[3.2.1]octan-3-yl)amino)pyrimidin-4-yl)-2-((3-fluoroazetidin-1-yl)methyl)-1-isopropyl-3-methylquinolin-4(1H)-one]",> 1000
5,"Cc1c(-c2nc(N[C@@H]3C[C@H]4CO[C@H](O4)[C@H]3O)ncc2C(F)F)sc2c(C(C)C)cn(C)c(=O)c12 [Compound 227, 2-(5-(difluoromethyl)-2-(((1S,3R,4S,5R)-4-hydroxy-6,8-dioxabicyclo[3.2.1]octan-3-yl)amino)pyrimidin-4-yl)-7-isopropyl-3,5-dimethylthieno[3,2-c]pyridin-4(5H)-one]",150 to 1000
6,"Cc1c(CN2[C@@H](C)COC[C@@H]2C)n(C(C)C)c2cc(-c3nc(N[C@@H]4C[C@H]5CO[C@H](O5)[C@H]4O)ncc3F)ccc2c1=O [Compound 199, 2-(((3S,5S)-3,5-dimethylmorpholino)methyl)-7-(5-fluoro-2-(((1S,3R,4S,5R)-4-hydroxy-6,8-dioxabicyclo[3.2.1]octan-3-yl)amino)pyrimidin-4-yl)-1-isopropyl-3-methylquinolin-4(1H)-one]",150 to 1000
7,"Cc1c(-c2nc(N[C@@H]3C[C@H]4CO[C@H](O4)[C@H]3O)ncc2Cl)sc2c(C(C)C)cn(C)c(=O)c12 [Compound 223, 2-(5-chloro-2-(((1S,3R,4S,5R)-4-hydroxy-6,8-dioxabicyclo[3.2.1]octan-3-yl)amino)pyrimidin-4-yl)-7-isopropyl-3,5-dimethylthieno[3,2-c]pyridin-4(5H)-one]",40 to 150
8,"CC(C)n1c(CN2[C@@H](C)COC[C@@H]2C)c(F)c(=O)c2ccc(-c3nc(N[C@@H]4C[C@H]5CO[C@H](O5)[C@H]4O)ncc3Cl)cc21 [Compound 201, 7-(5-chloro-2-(((1S,3R,4S,5R)-4-hydroxy-6,8-dioxabicyclo[3.2.1]octan-3-yl)amino)pyrimidin-4-yl)-2-(((3S,5S)-3,5-dimethylmorpholino)methyl)-3-fluoro-1-isopropylquinolin-4(1H)-one]",> 1000
9,"Cc1c(CN(C)C)n(C(C)C)c2cc(-c3nc(N[C@@H]4C[C@H]5CO[C@H](O5)[C@H]4O)ncc3F)ccc2c1=O [Compound 195, 2-((dimethylamino)methyl)-7-(5-fluoro-2-(((1S,3R,4S,5R)-4-hydroxy-6,8-dioxabicyclo [3.2.1]octan-3-yl)amino)pyrimidin-4-yl)-1-isopropyl-3-methylquinolin-4(1H)-one]",> 1000
10,"CC(C)n1c([C@@H]2CCOC2)nc2c(F)cc(-c3nc(N[C@@H]4C[C@H]5CO[C@H](O5)[C@H]4O)ncc3Cl)cc21 [Compound 268, (1S,3R,4S,5R)-3-((5-chloro-4-(4-fluoro-1-isopropyl-2-((S)-tetrahydrofuran-3-yl)-1H-benzo[d]imidazol-6-yl)pyrimidin-2-yl)amino)-6,8-dioxabicyclo[3.2.1]octan-4-ol]",> 1000
11,"CC(C)n1c(CN2CC[C@@H](F)C2)c(F)c(=O)c2ccc(-c3nc(N[C@@H]4C[C@H]5CO[C@H](O5)[C@H]4O)ncc3F)cc21 [Compound 202, 3-fluoro-7-(5-fluoro-2-(((1S,3R,4S,5R)-4-hydroxy-6,8-dioxabicyclo[3.2.1]octan-3-yl)amino)pyrimidin-4-yl)-2-(((R)-3-fluoropyrrolidin-1-yl)methyl)-1-isopropylquinolin-4(1H)-one]",> 1000
12,"CC(C)n1c(C(C)(C)O)nc2c(F)cc(-c3nc(N[C@@H]4C[C@H]5CO[C@H](O5)[C@H]4O)ncc3Cl)cc21 [Compound 1, (1S,3R,4S,5R)-3-((5-chloro-4-(4-fluoro-2-(2-hydroxypropan-2-yl)-1-isopropyl-1H-benzo[d]imidazol-6-yl)pyrimidin-2-yl)amino)-6,8-dioxabicyclo[3.2.1]octan-4-ol]",> 1000
